Five molecules from patent EP2142646B1, “METHOD OF INCREASING OF THE PHOTOSYNTHETIC CARBON DIOXIDE ASSIMILATION YIELD” (priority 2007, dated 2008) can be followed below.

One test has as its target T1, RuBisCO (Spinacia oleracea, UniProt P00870+P00875).
T1 construct: from tissue; host or cells: spinach
The test can be described thus: RuBisCO carboxylase assay (formation of acid-stable 14C product from NaH14CO3). It is filed as biochemical, spinach. From the text: Relative amount of product detected represents the ratio of the amount of [1-14C]-3-phosphoglycerate produced by the reaction in the presence of 20E to the amount of [1-14C]-3-phosphoglycerate produced by the reaction in no presence of 20E.
The influence of ecdysteroids on RuBisCO assay was based on the protocol described by Pierce et al. (Pierce JW, McCurry SD, Mulligan RM, Tolbert NE. Activation and assay of ribulose-1,5-bisphosphate carboxylase/oxygenase. Methods Enzymol. 1982; 89: 47-55.), where the RuBisCO carboxylase activity is assayed by the rate of formation of acid-stable ^14C product, […], formed from NaH^14CO3. First, the enzyme from spinach was activated at 2 mg.mL^-1 in the activating buffer - 100 mM Bicine pH 8.2, non-labelled 10 mM NaHCO3, 20 mM MgCl2, 0.2 mM EDTA and 1 mM dithiodireitol - for ten minutes at 30 °C. The assay itself was carried out in 20 ml scintillation vials in a solution prepared by mixing 250 µL of 200 mM bicine buffer pH 8.2, 0.4 mM EDTA and 1 mM dithiothreitol, 5 µL of 2 M MgCl2, 150 µL of 20E solution or water (in the case of the control), 20 µL of 250 mM NaH^14CO3 solution and 20 µL of 12.5 mM ribulose-1,5-bisphosphate. 250 mM NaH^14CO3 was prepared by mixing NaH^14CO3 solution (specific activity 2 mCi/ml) with 0.3 M NaHCO3 in the ratio of 1:4. The reaction was initiated by the addition of 100 µL of the activated enzyme and the vial was swirled so that the solution components could mix. The reaction was stopped by the addition of 200 µL of 2 M HCl. To remove excess ^14CO2 and acid, the vials were slowly heated at 95 °C in a hood. After the liquid evaporated and the vials were cooled at laboratory temperature, 5 mL of scintillation solution Rotiszint® eco plus was added. The concentration of 20E was chosen so that its final molar concentration to the molar concentration of the enzyme in the vial was 1:1; the stock solution containing 1 mg of 20E per ml was diluted to the desired concentration just before the experiment.
The same experiment as in Example 1 was carried out but different amounts of 20-hydroxyecdysone were used.
The same experiment as in Example 1 was carried out but different brassinosteroids were used.
The same experiment as in Example 1 was carried out but different ecdysteroids were used.
The same experiment as in Example 1 was carried out but mixed ecdysteroid fractions were used.

For another test, the system named is photosynthesis. The test can be described thus: Overall activity of photosynthesis in vivo: oxygen production by leaf target (Clark oxygen electrode). Conditions: for Net photosynthetic rate. PN, Average: average of 6 plants; for Net photosynthetic rate. PN: individual plants (Plant nr. 1-6), listed as 20E. As to the method:
Activity of photosynthesis was measured as the production of oxygen by circular target (average 35 mm) cut from the third leaf (counted from the top of the plant) that was placed in the sampling chamber. Assay: oxygen electrode (Clark electrode), sampling chamber LD2 (Hansatech, King's Lynn, Great Britain). Target was incubated in the dark for 5 minutes followed by 9 minutes of illumination; production of oxygen evaluated in the fifth-eighth minute after illumination (in the linear part of the light curve). Illumination was 240 micromol.m^-2.s^-1. Plants were 96 days old when analyzed (96 days after sowing). […]

The target in test [1] is small subunits of RuBisCO (Spinacia oleracea, UniProt P00870). The test is described as follows: Bioaffinity chromatography of steroid-binding proteins. The source says:
As an example, ecdysteroids can be stated. […] Their function in plants has been unknown yet. We discovered that these compounds influence the carboxylase activity of the enzyme. The active enzyme consists of 8 large subunits and 8 small subunits considered to have regulatory role. We identified the small subunits as proteins able to bind 20-hydroxyecdysone (20HE) in bioaffinity chromatography.

The mark [2] stands for this setting: molar ratio of steroid to enzyme 10:1, relative to reaction without steroid.

Molecules are shown by their SMILES. Where “and” joins values, the source holds several entries; their conditions need not be identical. Identical values can stand only once.

T1 sequence (P00870 whole entry, other chains not shown): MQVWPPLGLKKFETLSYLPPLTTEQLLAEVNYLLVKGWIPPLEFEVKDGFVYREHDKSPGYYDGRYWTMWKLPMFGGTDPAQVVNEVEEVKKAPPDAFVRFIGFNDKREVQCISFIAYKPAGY
small subunits of RuBisCO, sequence (P00870 whole entry): as the sequence (P00870 whole entry, other chains not shown) above

As for `CC(C)(O)CC[C@@H](O)[C@](C)(O)[C@H]1CC[C@@]2(O)C3=CC(=O)[C@@H]4C[C@@H](O)[C@@H](O)C[C@]4(C)[C@H]3CC[C@]12C` [20-hydroxyecdysone], the “Relative amount of product detected” value on RuBisCO (molar ratio of steroid to enzyme 1:1, [1-14C]-3-phosphoglycerate relative to reaction without steroid) worked out at 1.05; on RuBisCO (setting [2]), 1.13; at RuBisCO (molar ratio of steroid to enzyme 20:1, relative to reaction without steroid) it was 1.12. Further, the “Net photosynthetic rate. PN, Average” value is listed as 21.09 µmol O2.m^-2.s^-1 in the test with photosynthesis (1 hour), 22.77 µmol O2.m^-2.s^-1 with photosynthesis (2 hours), 22.34 µmol O2.m^-2.s^-1 with photosynthesis (4 hours) and 22.72 µmol O2.m^-2.s^-1 in the test with photosynthesis (6 hours). Moreover, the “Net photosynthetic rate. PN” value is 17.02 µmol O2.m^-2.s^-1 and 21.56 µmol O2.m^-2.s^-1 and 22.70 µmol O2.m^-2.s^-1 and 18.40 µmol O2.m^-2.s^-1 and 23.42 µmol O2.m^-2.s^-1 (2×) in the test on photosynthesis (1 hour, plants 96 days old, illumination 240 micromol.m^-2.s^-1); 18.73 µmol O2.m^-2.s^-1 and 21.56 µmol O2.m^-2.s^-1 and 23.83 µmol O2.m^-2.s^-1 and 23.42 µmol O2.m^-2.s^-1 and 25.10 µmol O2.m^-2.s^-1 and 23.98 µmol O2.m^-2.s^-1 with photosynthesis (2 hours); 21.56 µmol O2.m^-2.s^-1 and 22.70 µmol O2.m^-2.s^-1 and 22.31 µmol O2.m^-2.s^-1 (2×) and 21.75 µmol O2.m^-2.s^-1 and 23.42 µmol O2.m^-2.s^-1 with photosynthesis (4 hours); 23.83 µmol O2.m^-2.s^-1 and 22.70 µmol O2.m^-2.s^-1 and 22.31 µmol O2.m^-2.s^-1 (2×) and 21.75 µmol O2.m^-2.s^-1 and 23.42 µmol O2.m^-2.s^-1 in the test with photosynthesis (6 hours). Besides, in test [1], the “binding to small subunits of RuBisCO” value was “able to bind”.

On to `CC(C)[C@@H](C)[C@@H](O)[C@H](O)[C@@H](C)[C@H]1CC[C@H]2[C@@H]3COC(=O)[C@H]4C[C@H](O)[C@H](O)C[C@]4(C)[C@H]3CC[C@]12C` [24-epibrassinolide], for which, on RuBisCO (setting [2]), the “Relative amount of product detected” value is 1.10.

On to `CC(C)[C@@H](C)[C@@H](O)[C@H](O)[C@@H](C)[C@H]1CC[C@H]2[C@@H]3CC(=O)[C@H]4C[C@H](O)[C@H](O)C[C@]4(C)[C@H]3CC[C@]12C` [24-epicastasterone], for which the “Relative amount of product detected” value at RuBisCO (setting [2]) came to 1.20.

For the molecule `CC(C)CC[C@@H](O)[C@](C)(O)[C@H]1CC[C@@]2(O)C3=CC(=O)[C@@H]4C[C@@H](O)[C@@H](O)C[C@]4(C)[C@H]3[C@H](O)C[C@]12C` [Ajugasterone C], the “Relative amount of product detected” value on RuBisCO (setting [2]) was found to be 1.13.

In the case of `CC(C)(O)CC[C@@H](O)[C@](C)(O)[C@H]1CC[C@@]2(O)C3=CC(=O)[C@]4(O)C[C@@H](O)[C@@H](O)C[C@]4(C)[C@H]3CC[C@]12C` [Polypodine B], the “Relative amount of product detected” value at RuBisCO (setting [2]) is reported as 1.11.
